Literature values in patent US20050277597A1, “Use of N-L-alpha-aspartyl-L-phenylalanine 1-methyl ester to treat sunburn and other burns” (Oklahoma Medical Research Foundation, priority 2004, published 2005).
Where a SMILES comes first, the peptide text is derived from it.

In the case of `COC(=O)[C@H](Cc1ccccc1)NC(=O)[C@@H](N)CC(=O)O` [aspartame, N-L-aspartyl-L-phenyalanine 1-methyl ester] (H-Asp-Phe-OMe), the “maximum solubility in water” value (pH 2.2, 25° C.) is given as 20 mg/mL and the “minimum solubility in water” value (pH 5.2 (pHi), 25° C.) is given as 13.5 mg/mL.
